In paper PMC11472313, “Development of Fragment-Based Inhibitors of the Bacterial Deacetylase LpxC with Low Nanomolar Activity” (Journal of Medicinal Chemistry, 2024):

test system: LpxC–9 complex; assay: NMR-ILOE (interligand NOESY) of fragment hits with LpxC and 9; conditions: fragment hits binding the LpxC–9 complex by STD and WaterLogsy; 6 μM LpxC
Protocol: In order to find fragments specifically addressing the UDP-binding pocket, which can be linked to the LpxC inhibitors, a fragment screen was performed against LpxC bound to 9. First, 650 fragments in cocktails of five were tested for binding to the LpxC–9 complex using STD-NMR and WaterLogsy experiments. Then, fragment hits identified as potential binders were tested one by one against the LpxC–9 complex by STD-NMR and WaterLogsy experiments performed under identical experimental conditions. A total of 97 fragment hits were identified as binders, leading to a hit rate of 15%.
Then, NMR-ILOE experiments were performed with selected fragment hits in the presence of LpxC and the unsubstituted hydroxamic acid 9. This allowed the identification of fragments that bind in the enzyme’s UDP-binding pocket near the methylene group in the α-position of the inhibitor’s hydroxamate moiety. Weak interligand NOESY peaks were observed between inhibitor 9 and nine fragments. By contrast, no interligand NOESY peaks were observed between compound 9 and the other ten fragments. […] Unexpectedly, we also observed interligand NOESY between the fragment protons and protons of the morpholino moiety.
Standard 1D and STD NMR spectra were acquired at 20 °C with a Bruker 600 MHz NMR spectrometer equipped with a 5 mm cryoprobe. Parameters for the STD experiments (saturation frequency and saturation time) were identical for all samples. […] STD saturation time was 2 s. WaterLOGSY mixing time was 1.5 s. Two NOESY experiments were recorded with mixing times of 0.6 and 0.3 s. STD and WaterLOGSY spectra were recorded with the same NMR tubes containing 3 μM LpxC, compound 9 at 500 μM, and fragments at 500 μM. For NOESY experiments, NMR tubes contained 6 μM LpxC.
Temperature was set to 293 K for all NMR experiments.

SMILES | Inter-Ligand NOESY peaks between the fragment and 9
Cn1c(O)cc2ccccc21 [F13] | no
c1ccc(-c2cc[nH]n2)cc1 [F14] | yes
O=c1ccn([C@@H]2O[C@H](CO)[C@@H](O)[C@H]2O)c(=O)[nH]1 [F15] | no
O=c1cc[nH]c(=O)[nH]1 [F16] | no
Nc1cccc(-c2cnco2)c1 [F17] | no
O=C1OCc2ccccc21 [F18] | no
c1ccc(Cn2ccnc2)cc1 [F19] | yes
